Assay results: patent US10227357B2, “Compounds and methods for kinase modulation, and indications therefor” (Plexxikon Inc., priority 2012, dated 2019)

These compounds were tested against T1, c-kit mutant D816V (Homo sapiens, UniProt P10721, D816V/DEL694-753) (assay: c-Kit mutant D816V biochemical assay, AlphaScreen). Conditions: c-kit D816V biochemical inhibitory activity; read-out: Biochemical activity (IC50 μM) Kit D816V.
T1 construct: residues 551-934, kinase insertion domain residues 694-753 deleted; 6x-histidine (N); made in house; host or cells: E. coli Arctic Express (DE3) RIL (Stratagene)
T1 sequence (P10721 with tags, fused parts or gaps DEL694-753/D816V): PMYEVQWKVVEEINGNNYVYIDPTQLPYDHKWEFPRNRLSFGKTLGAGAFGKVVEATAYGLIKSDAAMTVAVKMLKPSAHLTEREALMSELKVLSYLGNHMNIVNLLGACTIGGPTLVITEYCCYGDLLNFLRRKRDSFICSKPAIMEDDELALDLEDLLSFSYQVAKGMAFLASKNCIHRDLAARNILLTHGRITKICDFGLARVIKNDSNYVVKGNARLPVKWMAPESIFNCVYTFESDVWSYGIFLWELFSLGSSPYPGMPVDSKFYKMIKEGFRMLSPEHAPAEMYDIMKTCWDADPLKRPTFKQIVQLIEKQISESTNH
Experimental: Compounds to be tested were dissolved in DMSO to a concentration of 20 mM. These were diluted 30 μl into 120 μl of DMSO (4 mM) and 1 μl was added to an assay plate. These were then serially diluted 1:3 (50 μl to 100 μl DMSO) for a total of 8 points. Plates were prepared such that each kinase reaction is 20 μl in 1× kinase buffer (25 mM HEPES, pH 7.2, 8 mM MgCl2, 2 mM MnCl2, 50 mM NaCl, 0.01% Brij, 1 mM DTT, 0.01% BSA), 5% DMSO and 10 μM ATP. […] After incubation of the kinase reaction for 30 minutes at room temperature, 5 μl of donor beads (Streptavidin coated beads (Perkin Elmer Life Science) final concentration 7.5 μg/ml) in stop buffer (25 mM Hepes pH 7.5, 100 mM EDTA, 0.01% BSA) was added, the sample was mixed and incubated for 20 minutes at room temperature before adding 5 μl of acceptor beads (PY20 coated beads (Perkin Elmer Life Science) final concentration 7.5 μg/ml) in stop buffer. The samples were incubated for 60 minutes at room temperature and the signal per well was read on EnVision reader. […] The signal vs. compound concentration was used to determine the IC50.
Cells were grown in Terrific Broth (TB) media to an OD600 of 0.6 at 37° C. at which temperature was reduced to 10° C., protein was induced with 1.0 mM IPTG for 18 hours and harvested by centrifugation at 8000×g for 20 minutes. Cells were re-suspended in 0.1M KPO4 pH 8.0, 250 mM NaCl, 10% Glycerol, 0.75% NP-40, 25 mM Imidazole, 5 mM BME with 0.2 mg/ml Lysosyme, 2.0 mM PMSF, 25 μg/ml DNAse I, incubated in ice for 30 minutes and lysed with a cell disruptor (MicroFluidics). The lysate was clarified by centrifugation at 20,000×g for 2 hours. The protein was captured with Talon resin (Clontech). Contaminating proteins were washed off with 25 mM Tris-HCl pH 8.3, 250 mM NaCl, 15% Glycerol, 1% Triton X-100, and protein eluted using 100 mM EDTA. The protein was further purified using Gel Filtration column 26/600 Superdex 200 (GE) in 50 mM Tris-HCl, pH 8.0, 250 mM NaCl, 15% Glycerol, 5 mM BME. The protein was aliquoted and flash-frozen in liquid Nitrogen.
`O=C(NCCc1ccc(F)cc1)N1CCN(c2ncnc3[nH]ccc23)CC1` [P-0164, N-[2-(4-fluorophenyl)ethyl]-4-(7H-pyrrolo[2,3-d]pyrimidin-4-yl)piperazine-1-carboxamide] was tested, and the IC50 was 10 to 200 µM. `O=C(NC(=O)N1CCN(c2ncnc3[nH]ccc23)CC1)c1ccccc1` [P-0174, N-benzoyl-4-(7H-pyrrolo[2,3-d]pyrimidin-4-yl)piperazine-1-carboxamide] showed an IC50 of 10 to 200 µM. `O=C(NCc1ccc(F)cc1)N1CCN(c2ncnc3[nH]cc(C4CC4)c23)CC1` [P-0179, 4-(5-cyclopropyl-7H-pyrrolo[2,3-d]pyrimidin-4-yl)-N-[(4-fluorophenyl)methyl]piperazine-1-carboxamide] gave an IC50 of 1 to 10 µM. With `Cc1ccccc1C(=O)c1c[nH]c2ncnc(N3CCN(C(=O)OC(C)(C)C)CC3)c12` [P-0187, tert-butyl 4-[5-(2-methylbenzoyl)-7H-pyrrolo[2,3-d]pyrimidin-4-yl]piperazine-1-carboxylate] the IC50 was 0.0001 to 1 µM. `CC(C)(C)OC(=O)N1CCN(c2ncnc3[nH]c(C(=O)Nc4ccccc4)cc23)CC1` [P-0211, tert-butyl 4-[6-(phenylcarbamoyl)-7H-pyrrolo[2,3-d]pyrimidin-4-yl]piperazine-1-carboxylate] was tested, and the IC50 was 0.0001 to 1 µM. With `COc1cccc(NC(=O)N2CCN(c3ncnc4[nH]cc(-c5ccccc5)c34)CC2)c1` [P-0228, N-(3-methoxyphenyl)-4-(5-phenyl-7H-pyrrolo[2,3-d]pyrimidin-4-yl)piperazine-1-carboxamide] the IC50 was 1 to 10 µM. `COc1cccc(NC(=O)N2CCN(c3ncnc4[nH]c(-c5cccnc5)cc34)CC2)c1` [P-0231, N-(3-methoxyphenyl)-4-[6-(3-pyridyl)-7H-pyrrolo[2,3-d]pyrimidin-4-yl]piperazine-1-carboxamide] showed an IC50 of 1 to 10 µM. In the case of `COc1cccc(NC(=O)N2CCN(c3ncnc4[nH]c(-c5ccccc5)cc34)CC2)c1` [P-0238, N-(3-methoxyphenyl)-4-(6-phenyl-7H-pyrrolo[2,3-d]pyrimidin-4-yl)piperazine-1-carboxamide], the IC50 is reported as 10 to 200 µM. For `COc1cc2ncnc(-c3ccc(NS(C)(=O)=O)c(F)c3)c2cc1OC` [P-0272, N-[4-(6,7-dimethoxyquinazolin-4-yl)-2-fluoro-phenyl]methanesulfonamide], the IC50 was 0.0001 to 1 µM. For `COc1ccc(S(=O)(=O)Nc2ccc(-c3ncnc4cc(OC)c(OC)cc34)cc2F)cc1` [P-0273, N-[4-(6,7-dimethoxyquinazolin-4-yl)-2-fluoro-phenyl]-4-methoxy-benzenesulfonamide], the IC50 was 0.0001 to 1 µM. `COc1cc2ncnc(-c3ccc(NS(=O)(=O)N4CCCC4)c(F)c3)c2cc1OC` [P-0274, N-[4-(6,7-dimethoxyquinazolin-4-yl)-2-fluoro-phenyl]pyrrolidine-1-sulfonamide] showed an IC50 of 1 to 10 µM. Compound `CCCS(=O)(=O)Nc1ccc(-c2ncnc3cc(OC)c(OC)cc23)cc1F` [P-0275, N-[4-(6,7-dimethoxyquinazolin-4-yl)-2-fluoro-phenyl]propane-1-sulfonamide] has an IC50 of 1 to 10 µM. Compound `Cc1cc2c(-c3ccc(NS(=O)(=O)c4ccc(C(C)C)cc4)cc3)ncnc2[nH]1` [P-0306, 4-isopropyl-N-[4-(6-methyl-7H-pyrrolo[2,3-d]pyrimidin-4-yl)phenyl]benzenesulfonamide] has an IC50 of 1 to 10 µM. `Cc1cc2c(-c3ccc(NS(=O)(=O)c4ccc(C(F)(F)F)cn4)cc3)ncnc2[nH]1` [P-0312, N-[4-(6-methyl-7H-pyrrolo[2,3-d]pyrimidin-4-yl)phenyl]-5-(trifluoromethyl)pyridine-2-sulfonamide] gave an IC50 of 1 to 10 µM. Work on `Cc1cc2c(-c3ccc(NS(=O)(=O)c4ccc(Cl)c(Cl)c4)cc3)ncnc2[nH]1` [P-0316, 3,4-dichloro-N-[4-(6-methyl-7H-pyrrolo[2,3-d]pyrimidin-4-yl)phenyl]benzenesulfonamide] yielded an IC50 of 1 to 10 µM. Compound `O=S(=O)(Nc1ccc(-c2ncnc3[nH]c(-c4ccc(F)cc4F)cc23)c(F)c1)c1ccc(F)cc1` [P-0332, N-[4-[6-(2,4-difluorophenyl)-7H-pyrrolo[2,3-d]pyrimidin-4-yl]-3-fluoro-phenyl]-4-fluoro-benzenesulfonamide] has an IC50 of 0.0001 to 1 µM. `Nc1ccc(-c2ncnc3[nH]c(-c4ccc(F)cc4F)cc23)c(F)c1` [P-0341, 4-[6-(2,4-difluorophenyl)-7H-pyrrolo[2,3-d]pyrimidin-4-yl]-3-fluoro-aniline] gave an IC50 of 0.0001 to 1 µM. `CS(=O)(=O)Nc1ccccc1-c1ncnc2[nH]c(-c3ccc(F)cc3)cc12` [P-0375, N-[2-[6-(4-fluorophenyl)-7H-pyrrolo[2,3-d]pyrimidin-4-yl]phenyl]methanesulfonamide] showed an IC50 of 10 to 200 µM. `NS(=O)(=O)c1ccc(-c2ncnc3[nH]c(-c4ccc(F)cc4)cc23)c(F)c1` [P-0376, 3-fluoro-4-[6-(4-fluorophenyl)-7H-pyrrolo[2,3-d]pyrimidin-4-yl]benzenesulfonamide] showed an IC50 of 0.0001 to 1 µM. Compound `Cc1cc2c(-c3ccc(S(=O)(=O)NC4CC4)cc3)ncnc2[nH]1` [P-0380, N-cyclopropyl-4-(6-methyl-7H-pyrrolo[2,3-d]pyrimidin-4-yl)benzenesulfonamide] has an IC50 of 10 to 200 µM. With `O=S(=O)(Nc1cccc(-c2ncnc3[nH]c(-c4cnc(C5CC5)nc4)cc23)c1)C1CC1` [P-0383, N-[3-[6-(2-cyclopropylpyrimidin-5-yl)-7H-pyrrolo[2,3-d]pyrimidin-4-yl]phenyl]cyclopropanesulfonamide] the IC50 was 10 to 200 µM. `c1nc(-c2cnc(C3CC3)nc2)c2cc(-c3cnc(C4CC4)nc3)[nH]c2n1` [P-0384, 4,6-bis(2-cyclopropylpyrimidin-5-yl)-7H-pyrrolo[2,3-d]pyrimidine] showed an IC50 of 10 to 200 µM. `NS(=O)(=O)c1ccc(-c2ncnc3[nH]c(-c4cnc(C5CC5)nc4)cc23)cc1` [P-0385, 4-[6-(2-cyclopropylpyrimidin-5-yl)-7H-pyrrolo[2,3-d]pyrimidin-4-yl]benzenesulfonamide] was tested, and the IC50 was 1 to 10 µM. Compound `O=S(=O)(Nc1ccc(-c2ncnc3[nH]c(-c4ccc(F)cc4)cc23)c(F)c1)N1CCCC1` [P-0400, N-[3-fluoro-4-[6-(4-fluorophenyl)-7H-pyrrolo[2,3-d]pyrimidin-4-yl]phenyl]pyrrolidine-1-sulfonamide] has an IC50 of 1 to 10 µM. In the case of `O=S(=O)(Nc1ccc(-c2ncnc3[nH]c(-c4ccc(F)cc4)cc23)cc1F)N1CCCC1` [P-0405, N-[2-fluoro-4-[6-(4-fluorophenyl)-7H-pyrrolo[2,3-d]pyrimidin-4-yl]phenyl]pyrrolidine-1-sulfonamide], the IC50 is reported as 10 to 200 µM. For `O=S(=O)(Nc1ccc(-c2ncnc3[nH]c(-c4ccc(F)cc4)cc23)cc1)N1CCCC1` [P-0411, N-[4-[6-(4-fluorophenyl)-7H-pyrrolo[2,3-d]pyrimidin-4-yl]phenyl]pyrrolidine-1-sulfonamide], the IC50 was 1 to 10 µM. Compound `CCNc1ccc(-c2ncnc3[nH]c(-c4ccc(F)cc4)cc23)cn1` [P-0417, N-ethyl-5-[6-(4-fluorophenyl)-7H-pyrrolo[2,3-d]pyrimidin-4-yl]pyridin-2-amine] has an IC50 of 1 to 10 µM. In the case of `CCNS(=O)(=O)c1ccc(-c2ncnc3[nH]c(-c4ccc(F)cc4)cc23)cc1` [P-0422, N-ethyl-4-[6-(4-fluorophenyl)-7H-pyrrolo[2,3-d]pyrimidin-4-yl]benzenesulfonamide], the IC50 is reported as 10 to 200 µM. Work on `O=S(=O)(Nc1ccc(F)cc1)c1ccc(-c2ncnc3[nH]c(-c4ccc(F)cc4)cc23)cc1` [P-0428, N-(4-fluorophenyl)-4-[6-(4-fluorophenyl)-7H-pyrrolo[2,3-d]pyrimidin-4-yl]benzenesulfonamide] yielded an IC50 of 0.0001 to 1 µM. Work on `Cc1ccc(S(=O)(=O)Nc2cccc(-c3ncnc4[nH]c(-c5ccc(F)cc5)cc34)c2)cc1` [P-0435, N-[3-[6-(4-fluorophenyl)-7H-pyrrolo[2,3-d]pyrimidin-4-yl]phenyl]-4-methyl-benzenesulfonamide] yielded an IC50 of 10 to 200 µM. `Cc1csc(S(=O)(=O)NC2CCN(c3ncnc4[nH]c(-c5cnn(C)c5)cc34)CC2)c1` [P-0453, 4-methyl-N-[1-[6-(1-methylpyrazol-4-yl)-7H-pyrrolo[2,3-d]pyrimidin-4-yl]-4-piperidyl]thiophene-2-sulfonamide] was tested, and the IC50 was 0.0001 to 1 µM. For `Cn1cc(-c2cc3c(N4CCC(NS(=O)(=O)c5ccc6c(c5)OCO6)CC4)ncnc3[nH]2)cn1` [P-0456, N-[1-[6-(1-methylpyrazol-4-yl)-7H-pyrrolo[2,3-d]pyrimidin-4-yl]-4-piperidyl]-1,3-benzodioxole-5-sulfonamide], the IC50 was 0.0001 to 1 µM. `Cc1ncc(-c2cc3c(N4CCC(NS(=O)(=O)c5ccc(OC(F)(F)F)cc5)CC4)ncnc3[nH]2)s1` [P-0463, N-[1-[6-(2-methylthiazol-5-yl)-7H-pyrrolo[2,3-d]pyrimidin-4-yl]-4-piperidyl]-4-(trifluoromethoxy)benzenesulfonamide] was tested, and the IC50 was 10 to 200 µM.
